Reference: the NIST ThermoML archive (doi:10.1021/je0501944)
Numbers after ± are expanded uncertainties.

Experiments:
[1] = 298.15 K, 101.33 kPa, Liquid; for viscosity: Capillary tube (Ostwald / Ubbelohde) method
[2] = xn = mol fraction of the nth substance listed; settings: 298.15 K, 101 kPa, Liquid; for viscosity: Capillary tube (Ostwald / Ubbelohde) method

SMILES: C1CCCCC1 [cyclohexane]
- mass density [1]: 773.93 ± 0.37 kg/m3
- viscosity [1]: 0.894 ± 0.007 mPa·s

SMILES: C1CCCCC1 [cyclohexane] + Cc1ccccc1
- viscosity ([2]; x2 = 0.0407): 0.8158 ± 0.0073 mPa·s
- viscosity ([2]; x2 = 0.2018): 0.7133 ± 0.0066 mPa·s
- viscosity ([2]; x2 = 0.2798): 0.6687 ± 0.0063 mPa·s
- viscosity ([2]; x2 = 0.3613): 0.6305 ± 0.006 mPa·s
- viscosity ([2]; x2 = 0.4416): 0.6081 ± 0.0058 mPa·s
- viscosity ([2]; x2 = 0.6003): 0.566 ± 0.0056 mPa·s
- viscosity ([2]; x2 = 0.6784): 0.5534 ± 0.0055 mPa·s
- viscosity ([2]; x2 = 0.7615): 0.5429 ± 0.0055 mPa·s
- viscosity ([2]; x2 = 0.8396): 0.5395 ± 0.0055 mPa·s
- viscosity ([2]; x2 = 0.9202): 0.5393 ± 0.0055 mPa·s
- mass density ([2]; x2 = 0.0407): 776.48 ± 0.37 kg/m3
- mass density ([2]; x2 = 0.2018): 788.44 ± 0.38 kg/m3
- mass density ([2]; x2 = 0.2798): 794.63 ± 0.39 kg/m3
- mass density ([2]; x2 = 0.3613): 801.33 ± 0.4 kg/m3
- mass density ([2]; x2 = 0.4416): 808.17 ± 0.41 kg/m3
- mass density ([2]; x2 = 0.6003): 822.4 ± 0.42 kg/m3
- mass density ([2]; x2 = 0.6784): 829.75 ± 0.44 kg/m3
- mass density ([2]; x2 = 0.7615): 837.82 ± 0.45 kg/m3
- mass density ([2]; x2 = 0.8396): 845.63 ± 0.46 kg/m3
- mass density ([2]; x2 = 0.9202): 853.94 ± 0.47 kg/m3

SMILES: CCCCC [pentane]
- mass density [1]: 621.32 ± 0.99 kg/m3
- viscosity [1]: 0.219 ± 0.005 mPa·s

SMILES: CCCCC [pentane] + C1CCCCC1
- viscosity ([2]; x2 = 0.0437): 0.2065 ± 0.0025 mPa·s
- viscosity ([2]; x2 = 0.2145): 0.2555 ± 0.0029 mPa·s
- viscosity ([2]; x2 = 0.2955): 0.2828 ± 0.0031 mPa·s
- viscosity ([2]; x2 = 0.3753): 0.3128 ± 0.0034 mPa·s
- viscosity ([2]; x2 = 0.4595): 0.3503 ± 0.0037 mPa·s
- viscosity ([2]; x2 = 0.6125): 0.4425 ± 0.0046 mPa·s
- viscosity ([2]; x2 = 0.7048): 0.5146 ± 0.0052 mPa·s
- viscosity ([2]; x2 = 0.7791): 0.5847 ± 0.0059 mPa·s
- viscosity ([2]; x2 = 0.8514): 0.6591 ± 0.0066 mPa·s
- viscosity ([2]; x2 = 0.9254): 0.7641 ± 0.0076 mPa·s
- mass density ([2]; x2 = 0.0437): 627.56 ± 0.49 kg/m3
- mass density ([2]; x2 = 0.2145): 653.09 ± 0.48 kg/m3
- mass density ([2]; x2 = 0.2955): 665.44 ± 0.47 kg/m3
- mass density ([2]; x2 = 0.3753): 677.59 ± 0.47 kg/m3
- mass density ([2]; x2 = 0.4595): 690.43 ± 0.47 kg/m3
- mass density ([2]; x2 = 0.6125): 713.75 ± 0.47 kg/m3
- mass density ([2]; x2 = 0.7048): 727.81 ± 0.48 kg/m3
- mass density ([2]; x2 = 0.7791): 739.14 ± 0.48 kg/m3
- mass density ([2]; x2 = 0.8514): 750.15 ± 0.49 kg/m3
- mass density ([2]; x2 = 0.9254): 761.85 ± 0.49 kg/m3

SMILES: CCCCC [pentane] + Cc1ccccc1
- viscosity ([2]; x2 = 0.0415): 0.2029 ± 0.0026 mPa·s
- viscosity ([2]; x2 = 0.2011): 0.2231 ± 0.0028 mPa·s
- viscosity ([2]; x2 = 0.2799): 0.2386 ± 0.0029 mPa·s
- viscosity ([2]; x2 = 0.3647): 0.2592 ± 0.0031 mPa·s
- viscosity ([2]; x2 = 0.4341): 0.2786 ± 0.0033 mPa·s
- viscosity ([2]; x2 = 0.6011): 0.3367 ± 0.0038 mPa·s
- viscosity ([2]; x2 = 0.6821): 0.3688 ± 0.0041 mPa·s
- viscosity ([2]; x2 = 0.7502): 0.3999 ± 0.0044 mPa·s
- viscosity ([2]; x2 = 0.8213): 0.4371 ± 0.0047 mPa·s
- viscosity ([2]; x2 = 0.9137): 0.4891 ± 0.0051 mPa·s
- mass density ([2]; x2 = 0.0415): 630.69 ± 0.55 kg/m3
- mass density ([2]; x2 = 0.2011): 668.27 ± 0.54 kg/m3
- mass density ([2]; x2 = 0.2799): 687.21 ± 0.53 kg/m3
- mass density ([2]; x2 = 0.3647): 707.61 ± 0.53 kg/m3
- mass density ([2]; x2 = 0.4341): 724.3 ± 0.52 kg/m3
- mass density ([2]; x2 = 0.6011): 764.45 ± 0.51 kg/m3
- mass density ([2]; x2 = 0.6821): 783.95 ± 0.5 kg/m3
- mass density ([2]; x2 = 0.7502): 800.32 ± 0.5 kg/m3
- mass density ([2]; x2 = 0.8213): 817.43 ± 0.49 kg/m3
- mass density ([2]; x2 = 0.9137): 840.19 ± 0.49 kg/m3

SMILES: Cc1ccccc1 [toluene]
- mass density [1]: 862.19 ± 0.62 kg/m3
- viscosity [1]: 0.552 ± 0.006 mPa·s
